# Test results published in article PMC7784773 (Protein Science : A Publication of the Protein Society, 2020).
# “And” between values parts separate entries of the source, which are not always exact repeats. Equal values may be shown once.
# Key:
# [1] = target: T1, R67 dihydrofolate reductase (R67 DHFR; 4F, 5F, 6F and 7F R67 DHFR) (Escherichia coli, UniProt P00383); assay: […] NMR titration, chemical shift, […] fit; type: binding
# T1 sequence (P00383 1-78): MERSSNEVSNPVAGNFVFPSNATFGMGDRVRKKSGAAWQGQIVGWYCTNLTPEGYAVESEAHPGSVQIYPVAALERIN
# [2] = target: T1, R67 dihydrofolate reductase (R67 DHFR; 4F, 5F, 6F and 7F R67 DHFR); assay: […] NMR titration, peak intensity, […] fit; type: binding; conditions: Kd (μM) ^a / NADP^+
structure (smiles),measurement,setting,value
NC(=O)c1ccc[n+]([C@@H]2O[C@H](COP(=O)(O)OP(=O)(O)OC[C@H]3O[C@@H](n4cnc5c(N)ncnc54)[C@H](OP(=O)(O)O)[C@@H]3O)[C@@H](O)[C@H]2O)c1 [NADP^+],Kd,[1],220 ± 20 µM
same,Kd,[2],360 µM and 320 µM and 380 µM
